{"source": "patent US20090029366A1", "about": "(priority 2007, published 2009)", "target": "T1, human HCN2 channel (Homo sapiens, UniProt Q9UL51)", "T1 construct": "expressed in transfected cells; host or cells: HEK-293H (clones #4, #8, #11, #12)", "T1 sequence (Q9UL51 1-889)": "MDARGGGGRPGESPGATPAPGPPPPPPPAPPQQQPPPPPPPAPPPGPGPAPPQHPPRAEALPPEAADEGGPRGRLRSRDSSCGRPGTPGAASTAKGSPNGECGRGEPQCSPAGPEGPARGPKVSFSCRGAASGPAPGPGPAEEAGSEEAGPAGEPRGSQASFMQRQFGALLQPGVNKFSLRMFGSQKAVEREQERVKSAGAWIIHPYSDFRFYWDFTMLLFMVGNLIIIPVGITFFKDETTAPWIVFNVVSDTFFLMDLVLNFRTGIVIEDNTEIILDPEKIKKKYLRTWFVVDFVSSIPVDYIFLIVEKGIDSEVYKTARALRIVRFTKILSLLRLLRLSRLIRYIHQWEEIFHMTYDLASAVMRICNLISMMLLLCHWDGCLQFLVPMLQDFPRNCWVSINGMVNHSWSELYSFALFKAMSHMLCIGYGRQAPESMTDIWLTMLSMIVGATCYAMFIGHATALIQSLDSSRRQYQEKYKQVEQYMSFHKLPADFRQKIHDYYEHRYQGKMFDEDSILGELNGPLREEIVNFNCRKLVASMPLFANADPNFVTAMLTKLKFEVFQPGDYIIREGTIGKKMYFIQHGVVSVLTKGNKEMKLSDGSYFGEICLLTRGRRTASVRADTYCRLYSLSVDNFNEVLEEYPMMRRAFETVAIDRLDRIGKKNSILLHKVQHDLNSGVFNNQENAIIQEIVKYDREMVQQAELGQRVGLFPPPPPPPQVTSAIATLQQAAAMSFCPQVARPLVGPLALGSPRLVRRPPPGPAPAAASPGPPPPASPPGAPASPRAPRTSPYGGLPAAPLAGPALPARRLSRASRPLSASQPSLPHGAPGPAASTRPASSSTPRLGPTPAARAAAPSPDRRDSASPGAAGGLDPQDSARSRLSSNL", "test": "MPSD FLIPR 384 assay on HEK-293H clones expressing HCN2", "type": "cell-based", "conditions": "30 μM ZD7288", "method": "HEK-293H cells were transfected with constructs encoding a human HCN2 channel essentially as described in Example 1. Cell lines were generated from a single clone according to standard protocols. The cells were incubated in HBSS/MPSD (control cells) or HBSS/MPSD and 30 μM ZD7288 (test cells) using a 384 well plate format, followed by the addition of the sodium/potassium diluent solution essentially as described in Examples 3 and 5. FIGS. 14A-14D show the effect of ZD7288 on each of the four clones expressing HCN2 channels. FIGS. 14A (clone #4), 14B (clone #8), 14C (clone #11), and 14D (clone #12) each depict the change in fluorescence over time for cells incubated in saline only (overlaid lower traces ) and for cells incubated in saline containing the HCN channel inhibitor ZD7288 (overlaid upper traces ). […] The Z-factor was between 0.56 and 0.64, and the covariance (CV) was between from 6.6 to 9.9."}
{"compound": "CCN(c1ccccc1)c1cc(=NC)n(C)c(C)n1.Cl", "note": "[ZD7288]", "values": [{"measurement": "blockade of hyperpolarization for each of the HCN2 clones", "setting": "384 well, clones #4, #8, #11, #12", "result": "effectively blocked hyperpolarization"}, {"measurement": "Δfluorescence (saline + ZD7288), Mean", "setting": "Clone #4, saline only −24421", "result": "−2392", "unit": "RFU"}, {"measurement": "Δfluorescence (saline + ZD7288), Mean", "setting": "Clone #8, saline only −23600", "result": "−3006", "unit": "RFU"}, {"measurement": "Δfluorescence (saline + ZD7288), Mean", "setting": "Clone #11, saline only −25477", "result": "−2413", "unit": "RFU"}, {"measurement": "Δfluorescence (saline + ZD7288), Mean", "setting": "Clone #12, saline only −26367", "result": "−4834", "unit": "RFU"}]}
